System: HEK293T cells
Experiment: Metabolic conversion and uptake of 2-hydroxylated fatty acids in HEK293T cell cultures
Type: in vitro ADME, human
Description: To describe the metabolic conversion of DHA-H to HPA(C21:5 ω-3), as well as the conversion of LA-H to HDA (C17:2 ω-6), ALA-H to HTA ω-3 (C17:3 ω-3), GLA-H to HTA ω-6 (C17:3 ω-6), ARA-H to NTA (C19:4 ω-6), EPA-H to NPA (C19:5 ω-3), HEK293T (Human Embryonic Kidney Cells 293T) cell cultures were employed, which is an embryonic, non-tumoral cell line, widely used in human metabolism studies under physiological conditions.
HEK293T cells were cultured in Dulbecco's Modified Eagle's Medium (DMEM; Dubelcco's Modified Eagle's Medium, Biowest, France), supplemented with 10% FBS (Fetal Bovine Serum; Gibco, Thermo-Fisher), 2 mM L-Gln, 25 mM D(+)-glucose, 1 mM sodium pyruvate, and penicillin/streptomycin. Mouse neuroblastoma N2a cells were maintained in a 1:1 (v:v) mixture of DMEM and Opti-Mem (Gibco, Thermo-Fisher), supplemented with 5% FBS and penicillin/streptomycin. Both cell lines were incubated in an atmosphere of 5% CO2 at 37° C.
HEK293T cells were incubated with DHA-H and DHA at 10, 30 and 100 μM for 24 hours, and at 30 μM for 6, 48 and 72 hours. These cells were also incubated with LA-H, ALA-H, GLA-H, ARA-H and EPA-H at 100 μM for 24 hours. HEK293T cells were also incubated with oxythiamine in the presence of DHA-H under the same conditions, at final oxythiamine concentrations of 1 and 10 mM. The HEK293T cells were separated from the plates by pipettes with cold phosphate buffer saline solution (PBS). Cells were recovered by centrifugation (1000 xg, 10 min at 4° C.) and washed twice with cold PBS before being frozen at −80° C. To analyze DHA-H and DHA levels in the cell culture medium, 90 mm diameter plates were filled with 11 mL of complete cell culture medium containing 30 μM DHA-H or DHA in the presence or absence of attached HEK293T cells (5.10^5 cells/plate). The plates were incubated as described above and 1 ml aliquots of the plates were collected at 0, 6, 24, 48 and 72 hours. Aliquots of the cell culture medium were immediately centrifuged at 1000×g for 10 min at 4° C. to remove any cell suspension and the cell-free aliquots were stored at -20° C.
The cell lysates were subjected to ultrasound pulses (4 cycles, 10 s/cycle, 10 W) before lipid extraction. For brain analysis, the tissue of each animal was homogenized in cold PBS at 1:10 (p:v) in the presence of protease inhibitors (Roche), using a blade homogenizer (Polytron PT3100). Homogenates were ultrasounded, aliquots were made and stored at −80 ° C. Only one aliquot of each sample, containing about 8 mg protein/aliquot, was subjected to lipid extraction. Protein content before lipid extraction was determined by a modified Lowry method (Bio-rad DC Protein Assay).
Margaric acid (C17:0) was added to the samples subjected to lipid extraction as an internal standard and the lipids were extracted with chloroform:methanol (Eggers and Schwudke, 2016). Briefly, 0.75 volumes of the aqueous phase (which already contained the biological sample) were mixed with 2 volumes of chloroform and 1 volume of methanol. This mixture was vortexed for 1 minute and centrifuged at 1000×g for 10 minutes. The lower organic phase was collected and washed with 1 ml of PBS:methanol (1:1,v:v), and the resulting organic phase was dried under argon flow. The film containing the extracted lipids was transmethylated by incubation of the lipid mixture for 90 minutes at 100° C. in 3 ml of methanol:acetyl chloride (10:1, v:v), under an argon atmosphere (Christie, 1993). The resulting fatty acid methyl esters (FAMEs) were extracted with hexane, adding 3 ml of H2O and 1 ml of hexane to the transmethylation reaction, and vortexing the mixture thoroughly. After centrifugation at room temperature (1000×g for 10 min), the upper phase containing the FAMEs was collected and the remaining volume was washed twice with 1 ml of hexane.

| Formation of the metabolite from its 2-hydroxylated prodrug in the presence of oxythiamine (HEK293T, prodrug 100 μM, 24 h, 10 mM oxythiamine) | Levels in the culture medium in the absence of cell culture (30 μM, up to 72 h, no cells) | Compound | Intracellular HPA levels compared to DHA-H levels (HEK293T under DHA-H, from 24 hours of incubation and 30 μM) |
| --- | --- | --- | --- |
| inhibited |  | CC/C=C\C/C=C\C/C=C\C/C=C\C/C=C\CCCCC(=O)O [HPA, (6Z,9Z,12Z,15Z,18Z)-heneicosa-6,9,12,15,18-pentaenoic acid] | significantly higher than those of the prodrug |
|  | remained constant over time | CCC=CCC=CCC=CCC=CCC=CCC=CCC(O)C(=O)O (stereo not drawn) [DHA-H, 2-hydroxy-drocosahexaenoic acid] |  |

— patent US20230097753A1, “ALPHA-HYDROXYLATED FATTY-ACID METABOLITES, MEDICAL USES AND USE AS BIOMARKERS” (UNIVERSITAT DE LES ILLES BALEARS, priority 2020, published 2023)
